Assay results: patent EP0989131B1, “THIENOTRIAZOLODIAZEPINE COMPOUNDS AND MEDICINAL USES THEREOF” (priority 1996, dated 1998)
Like-named read-outs stand apart in the source and are kept apart here.

Key:
[1] = system: CD11b expression of human histiocytic leukemia cell line U937; test: Effect on CD11b expression of human histiocytic leukemia cell line U937 (cell ELISA); assay type: cell-based; conditions: U937 cells; for IC50: PDB 10 ng/ml, cultured 3 days, read-out: Inhibitory effect on CD11b expression (IC50)
Description: Effect on the expression of CD11b antigen, which constitutes the α chain of Mac-1, which is one of the adhesion molecules expressing on the surface of leukocytic cells, was investigated. U937 cells were suspended in RPMI1640 medium containing 20% fetal calf serum, plated with phorbol 12,13-dibutyrate (PDB, 10 ng/ml) and the test compound into 96-well filtration plates (30000 cells/well), and cultured for 3 days at 37°C in 5% CO2. After washing the cells once with RPMI1640 medium, rat anti-human CD11b monoclonal antibody (2 µg/ml) was added and the plates were stood for 1 hr under ice-cooling. The cells were washed twice and peroxidase-conjugated anti-rat immunoglobulin antibody (1 µg/ml) was added. The cells were stood for 1 hr under ice-cooling. The cells were washed 3 times and peroxidase substrate (o-phenylenediamine) for coloring was added. The plates were stood for 15 min at room temperature and absorbance at 490 nm was measured with a 96-well microplate reader, which was used as an indicator of CD 11b antigen expression.

[2] = system: VCAM-1 expression in human umbilical vein-derived endothelial cells (HUVEC); test: Inhibitory effect on TNF alpha-induced VCAM-1 expression in HUVEC (cell ELISA); assay type: cell-based; conditions: for IC50: tumour necrosis factor α 20 U/ml, 5 hr
Description: (§1) HUVEC was suspended in 199 medium containing 20% fetal calf serum, 20 µg/ml endothelial cell growth factor derived from bovine brain, and 100 µg/ml heparin, plated into 96-well microculture plates coated with collagen, and cultured at 37°C in 5% CO2. When cells grew to confluence, the cells received tumour necrosis factor α (20 U/ml for VCAM-1 expression induction, 100 U/ml for E-selectin expression induction) and the test compound, which was followed by further culture for 5 hr. The cells were washed once with 199 medium and mouse anti-human VCAM-1 monoclonal antibody (2 µg/ml) or rat anti-human E-selectin monocolnal antibody (2 µg/ml) was added. The cells were stood for 1 hr at room temperature. The cells were washed twice and peroxidase-conjugated anti-mouse immunoglobulin antibody or anti-rat immunoglobulin antibody was added. The cells were stood for 1 hr at room temperature. The cells were washed 3 times and 2,2'-azino-bis(3-ethylbenzothiazoline-6-sulfonic acid) as a peroxidase substrate was added. The plates were stood for 15 min at room temperature and absorbance at 405 n/490 nm was measured with a 96-well microplate reader, which was used as an indicator of VCAM-1 or E-selectin expression.

[3] = system: E-selectin expression in human umbilical vein-derived endothelial cells (HUVEC); test: Inhibitory effect on TNF alpha-induced E-selectin expression in HUVEC (cell ELISA); assay type: cell-based; conditions: for IC50: tumour necrosis factor α 100 U/ml, 5 hr
Description: as §1

[4] = system: trinitrobenzenesulfonic acid (TNBS)-induced colitis; test: Effect on trinitrobenzenesulfonic acid (TNBS)-induced colitis in rat; assay type: in vivo, SD rats; conditions: TNBS sensitized rats, 5 days
Description: Colitis was induced by intraintestinal injection of TNBS solution (60 mg/ml in 50% EtOH, 500 µl) to SD rats. Seven days later, rats were subjected to autopsy and large intestine (8 cm from anus) was cut out and weighed. Myeloperoxidase (MPO) activity in the intestinal tissue was measured and taken as an indicator of infiltrated leukocyte count. That is, the intestine was homogenized and a cycle of freeze-thawing of the tissue was repeated 3 times. The supernatant obtained by centrifugation was assayed for MPO activity using peroxidase substrate (o-phenylenediamine). MPO unit in the supernatant was calculated with the commercial MPO as a standard. The increase in intestinal weight and increase in MPO activity determined as above were taken as indicators of the degree of colitis. Test compound was suspended in 0.5% hydroxypropylmethylcellulose (Metolose)solution and administered p.o. ([…]) or intraintestinally (0.2 ml/rat) for 5 days beginning on the day of TNBS injection.

[5] = Toxicity test, repeated oral administration; assay type: in vivo; conditions: female rats, repeated oral administration for 10 days, 300 mg/kg
Excerpt: Compound 2 was repeatedly administered orally to female rats for 10 days.

[6] = system: carrageenan-induced colitis; test: Effect on carrageenan-induced colitis in rabbits; assay type: in vivo; conditions: 10 mg/kg consecutively from day 0 for 8 weeks, autopsy day 56, control 10.9 ± 2.0, P<0.05 (Mann-Whitney's U-test)
Description: A mixed emulsion of 1% λ-degraded carrageenan and Freund's complete adjuvant was subcutaneously injected to rabbits for sensitization. Starting from the 7th day (day 0) from sensitization, λ-degraded carrageenan (250-1000 mg/day/rabbit) was forcibly administered orally for 8 weeks to induce colitis. The next day (day 56) of the termination of λ-degraded carrageenan intake, the rabbits were subjected to autopsy and disorder in large intestine was scored using abnormal observation of mucosal epithelium of the tissue sample, level of infiltration of inflammatory cells and the like as indices. The test compounds (10 mg/kg) were consecutively administered from day 0 for 8 weeks.

## 5-(2-chlorophenyl)-7-(morpholinocarbonylethyl)-10-methyl-3,4-dihydro-2H,7H-cyclopenta[4,5]thieno[3,2-f][1,2,4]triazolo[4,3-a][1,4]diazepine [Comparison Compound]
[1]
  IC50: > 3000 nM
[1]; ratio to Compound 2
  activity relative to the activity of Compound 2 (CD11b expression): not more than 1/100
[2]; ratio to Compound 2
  VCAM-1 expression inhibitory effect relative to that of Compound 2: not more than 1/90
[2]
  IC50: > 10 µM
[3]; ratio to Compound 2
  E-selectin expression inhibitory effect relative to the activity of Compound 2: not more than 1/130
[3]
  IC50: > 10 µM

## Cc1sc2c(c1C)C(c1ccc(Cl)cc1)=N[C@@H](CC(=O)Nc1ccc(O)cc1)c1nnc(C)n1-2 [Compound 1, (S)-2-[4-(4-chlorophenyl)-2,3,9-trimethyl-6H-thieno[3,2-f][1,2,4]triazolo[4,3-a][1,4]diazepin-6-yl]-N-(4-hydroxyphenyl)acetamide]
[4]; Table 3A, intraintestinal, 0.01 mg/site, P<0.01 (Dunnett's test)
  Intestinal weight (mg, mean ± S.D.): 501.5 ± 78.3 mg
[4]; Table 3A, intraintestinal, 0.1 mg/site, P<0.01 (Dunnett's test)
  Intestinal weight (mg, mean ± S.D.): 472.0 ± 43.4 mg
[4]; Table 3A, intraintestinal, 1 mg/site, P<0.01 (Dunnett's test)
  Intestinal weight (mg, mean ± S.D.): 460.8 ± 52.3 mg
[4]; Table 3B, intraintestinal, 0.01 mg/site, P<0.05 (Mann-Whitney's U-test)
  MPO activity (U/ml, mean ± S.D.): 0.716±0.158 U/ml
[4]; Table 3B, intraintestinal, 0.1 mg/site, P<0.05 (Mann-Whitney's U-test)
  MPO activity (U/ml, mean ± S.D.): 0.654±0.109 U/ml
[4]; Table 3B, intraintestinal, 1 mg/site, P<0.05 (Mann-Whitney's U-test)
  MPO activity (U/ml, mean ± S.D.): 0.676±0.172 U/ml

## Cc1sc2c(c1C)C(c1ccc(Cl)cc1)=N[C@@H](CC(=O)Nc1ccc(O)cc1)c1nnc(C)n1-2.O.O [Compound 2, (S)-2-[4-(4-chlorophenyl)-2,3,9-trimethyl-6H-thieno[3,2-f][1,2,4]triazolo[4,3-a][1,4]diazepin-6-yl]-N-(4-hydroxyphenyl)acetamide dihydrate]
[1]; Homo sapiens, U-937, 72 h
  IC50: < 30 nM
[2]; Homo sapiens
  IC50: 0.11 µM
[3]; Homo sapiens
  IC50: 0.073 µM
[5]
  death: No case of death was observed
[4]; Table 4A, intraintestinal, 0.01 mg/site, P<0.01 (Dunnett's test)
  Intestinal weight (mg, mean ± S.D.): 499.6 ± 71.7 mg
[4]; Table 4A, intraintestinal, 0.1 mg/site, P<0.01 (Dunnett's test)
  Intestinal weight (mg, mean ± S.D.): 502.0 ± 51.5 mg
[4]; Table 4A, intraintestinal, 1 mg/site, P<0.05 (Dunnett's test)
  Intestinal weight (mg, mean ± S.D.): 536.0 ± 62.2 mg
[4]; Table 4B, intraintestinal, 0.01 mg/site, P<0.01 (Mann-Whitney's U-test)
  MPO activity (U/ml, mean ± S.D.): 0.354 ± 0.081 U/ml
[4]; Table 4B, intraintestinal, 0.1 mg/site, P<0.01 (Mann-Whitney's U-test)
  MPO activity (U/ml, mean ± S.D.): 0.334 ± 0.069 U/ml
[4]; Table 4B, intraintestinal, 1 mg/site, P<0.01 (Mann-Whitney's U-test)
  MPO activity (U/ml, mean ± S.D.): 0.345 ± 0.097 U/ml
[4]; Table 5A, oral, 0.03 mg/kg, significance none (Dunnett's test)
  Intestinal weight (mg, mean ± S.D.): 699.3 ± 163.7 mg
[4]; Table 5A, oral, 1 mg/kg, P<0.01 (Dunnett's test)
  Intestinal weight (mg, mean ± S.D.): 468.5 ± 47.6 mg
[4]; Table 5A, oral, 3 mg/kg, P<0.01 (Dunnett's test)
  Intestinal weight (mg, mean ± S.D.): 458.0 ± 34.7 mg
[4]; Table 5B, oral, 0.3 mg/kg, significance none (Mann-Whitney's U-test)
  MPO activity (U/ml, mean ± S.D.): 1.568 ± 0.538 U/ml
[4]; Table 5B, oral, 1 mg/kg, P<0.05 (Mann-Whitney's U-test)
  MPO activity (U/ml, mean ± S.D.): 0.769 ± 0.222 U/ml
[4]; Table 5B, oral, 3 mg/kg, P<0.05 (Mann-Whitney's U-test)
  MPO activity (U/ml, mean ± S.D.): 0.740 ± 0.142 U/ml
[6]
  mean ± S.E. of score (disorder in large intestine): 5.3 ± 0.6
